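Test compounds were applied to cells in 96-well plates for 48 hours at 5 doses. GI50: concentration for 50% inhibition of growth. TGI: total growth inhibition.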
Key:
Assay in all cases: NCI anticancer screen, dose series, 48 h
PC-3 prostate = test system: PC-3 prostate
NCI/ADR-RES ovarian = test system: NCI/ADR-RES ovarian
K-562 leukemia = test system: K-562 leukemia
KM12 colon = test system: KM12 colon
CCRF-CEM leukemia = test system: CCRF-CEM leukemia
MDA-MB-468 breast = test system: MDA-MB-468 breast
NCI-H23 lung = test system: NCI-H23 lung
786-0 renal = test system: 786-0 renal
SF-295 CNS = test system: SF-295 CNS
OVCAR-3 ovarian = test system: OVCAR-3 ovarian
UACC-62 melanoma = test system: UACC-62 melanoma
SNB-75 CNS = test system: SNB-75 CNS
DU-145 prostate = test system: DU-145 prostate
OVCAR-4 ovarian = test system: OVCAR-4 ovarian
A549 NSCLC = test system: A549 NSCLC
SNB-19 CNS = test system: SNB-19 CNS
NCI-H226 lung = test system: NCI-H226 lung
HCT-15 colon = test system: HCT-15 colon
RPMI-8226 leukemia = test system: RPMI-8226 leukemia
NCI-H522 lung = test system: NCI-H522 lung
HT29 colon = test system: HT29 colon
MALME-3M melanoma = test system: MALME-3M melanoma
TK-10 renal = test system: TK-10 renal
LOX IMVI melanoma = test system: LOX IMVI melanoma
UO-31 renal = test system: UO-31 renal
IGROV1 ovarian = test system: IGROV1 ovarian
ACHN renal = test system: ACHN renal
MCF7 breast = test system: MCF7 breast
OVCAR-5 ovarian = test system: OVCAR-5 ovarian
CAKI-1 renal = test system: CAKI-1 renal
HOP-62 NSCLC = test system: HOP-62 NSCLC
MDA-MB-231 breast = test system: MDA-MB-231 breast
COLO 205 colon = test system: COLO 205 colon
HOP-92 NSCLC = test system: HOP-92 NSCLC
HCT-116 colon = test system: HCT-116 colon
NCI-H460 lung = test system: NCI-H460 lung
SF-539 CNS = test system: SF-539 CNS
T-47D breast = test system: T-47D breast
EKVX NSCLC = test system: EKVX NSCLC
HS 578T breast = test system: HS 578T breast
U251 CNS = test system: U251 CNS
SK-MEL-2 melanoma = test system: SK-MEL-2 melanoma
SK-MEL-28 melanoma = test system: SK-MEL-28 melanoma
RXF 393 renal = test system: RXF 393 renal
SN12C renal = test system: SN12C renal
UACC-257 melanoma = test system: UACC-257 melanoma
OVCAR-8 ovarian = test system: OVCAR-8 ovarian
SF-268 CNS = test system: SF-268 CNS
BT-549 breast = test system: BT-549 breast
MOLT-4 leukemia = test system: MOLT-4 leukemia
MDA-MB-435 = test system: MDA-MB-435
SK-OV-3 ovarian = test system: SK-OV-3 ovarian
A498 renal = test system: A498 renal
HL-60(TB) leukemia = test system: HL-60(TB) leukemia
SK-MEL-5 melanoma = test system: SK-MEL-5 melanoma
SW-620 colon = test system: SW-620 colon
HCC-2998 colon = test system: HCC-2998 colon

`N/C(=N\c1nc2ccccc2s1)NC(=O)Nc1ccccc1[N+](=O)[O-]` showed a GI50 (PC-3 prostate) of 143 nM, a TGI (PC-3 prostate) of 28.8 µM and a GI50 (NCI/ADR-RES ovarian) of 45 nM. For the same compound, the TGI (NCI/ADR-RES ovarian) was 345 nM, the GI50 (K-562 leukemia) was 42.4 nM and the TGI (K-562 leukemia) was > 100 µM. For the same compound, the GI50 (KM12 colon) was 60.5 nM, the TGI (KM12 colon) was 14 µM and the GI50 (CCRF-CEM leukemia) was 55.5 nM. The TGI (CCRF-CEM leukemia) was 16.6 µM, the GI50 (MDA-MB-468 breast) was 228 nM and the TGI (MDA-MB-468 breast) was 573 nM. The GI50 (NCI-H23 lung) was 266 nM, the TGI (NCI-H23 lung) was 16.8 µM and the GI50 (786-0 renal) was 186 nM. For the same compound, the TGI (786-0 renal) was 13.6 µM, the GI50 (SF-295 CNS) was 55 nM and the TGI (SF-295 CNS) was 10.8 µM. It also gave a GI50 (OVCAR-3 ovarian) of 51.4 nM, a TGI (OVCAR-3 ovarian) of 9.13 µM and a GI50 (UACC-62 melanoma) of 45.9 nM. For the same compound, the TGI (UACC-62 melanoma) was 14 µM, the GI50 (SNB-75 CNS) was 36.3 nM and the TGI (SNB-75 CNS) was 12.5 µM. It also gave a GI50 (DU-145 prostate) of 327 nM, a TGI (DU-145 prostate) of 13.4 µM and a GI50 (OVCAR-4 ovarian) of 8.07 µM. For the same compound, the TGI (OVCAR-4 ovarian) was 42.5 µM, the GI50 (A549 NSCLC) was 346 nM and the TGI (A549 NSCLC) was 16.9 µM. It also gave a GI50 (SNB-19 CNS) of 151 nM, a TGI (SNB-19 CNS) of 19.6 µM and a GI50 (NCI-H226 lung) of 571 nM. For the same compound, the TGI (NCI-H226 lung) was 9.26 µM, the GI50 (HCT-15 colon) was 48.2 nM and the TGI (HCT-15 colon) was 11.3 µM. The GI50 (RPMI-8226 leukemia) was 341 nM, the TGI (RPMI-8226 leukemia) was > 59.9 µM and the GI50 (NCI-H522 lung) was 33 nM. For the same compound, the TGI (NCI-H522 lung) was 363 nM, the GI50 (HT29 colon) was 62.1 nM and the TGI (HT29 colon) was 645 nM. The GI50 (MALME-3M melanoma) was 103 nM, the TGI (MALME-3M melanoma) was 16.7 µM and the GI50 (TK-10 renal) was 12.9 µM. The TGI (TK-10 renal) was 28.4 µM, the GI50 (LOX IMVI melanoma) was 69.8 nM and the TGI (LOX IMVI melanoma) was 11.6 µM. It also gave a GI50 (UO-31 renal) of 244 nM, a TGI (UO-31 renal) of 17.1 µM and a GI50 (IGROV1 ovarian) of 108 nM. It also gave a TGI (IGROV1 ovarian) of 12.7 µM, a GI50 (ACHN renal) of 111 nM and a TGI (ACHN renal) of 16.3 µM. For the same compound, the GI50 (MCF7 breast) was 168 nM, the TGI (MCF7 breast) was 12.6 µM and the GI50 (OVCAR-5 ovarian) was 376 nM. It also gave a TGI (OVCAR-5 ovarian) of 13.1 µM, a GI50 (CAKI-1 renal) of 63.5 nM and a TGI (CAKI-1 renal) of 16.1 µM. It also gave a GI50 (HOP-62 NSCLC) of 104 nM, a TGI (HOP-62 NSCLC) of 19.6 µM and a GI50 (MDA-MB-231 breast) of 139 nM. The TGI (MDA-MB-231 breast) was 4.66 µM, the GI50 (COLO 205 colon) was 169 nM and the TGI (COLO 205 colon) was 781 nM. It also gave a GI50 (HOP-92 NSCLC) of 4.58 µM, a TGI (HOP-92 NSCLC) of 26.3 µM and a GI50 (HCT-116 colon) of 43.1 nM. It also gave a TGI (HCT-116 colon) of 6.06 µM, a GI50 (NCI-H460 lung) of 56.8 nM and a TGI (NCI-H460 lung) of 6.76 µM. For the same compound, the GI50 (SF-539 CNS) was 39.9 nM, the TGI (SF-539 CNS) was 273 nM and the GI50 (T-47D breast) was 538 nM. It also gave a TGI (T-47D breast) of 25.7 µM, a GI50 (EKVX NSCLC) of 248 nM and a TGI (EKVX NSCLC) of 17.9 µM. The GI50 (HS 578T breast) was 61.5 nM, the TGI (HS 578T breast) was 18.7 µM and the GI50 (U251 CNS) was 55.5 nM. For the same compound, the TGI (U251 CNS) was 14 µM, the GI50 (SK-MEL-2 melanoma) was 32.9 nM and the TGI (SK-MEL-2 melanoma) was 3.02 µM. The GI50 (SK-MEL-28 melanoma) was 1200 nM, the TGI (SK-MEL-28 melanoma) was 20.6 µM and the GI50 (RXF 393 renal) was 47.2 nM. It also gave a TGI (RXF 393 renal) of 499 nM, a GI50 (SN12C renal) of 258 nM and a TGI (SN12C renal) of 12.7 µM. It also gave a GI50 (UACC-257 melanoma) of 12.2 µM, a TGI (UACC-257 melanoma) of 25 µM and a GI50 (OVCAR-8 ovarian) of 201 nM. It also gave a TGI (OVCAR-8 ovarian) of 9.44 µM, a GI50 (SF-268 CNS) of 2360 nM and a TGI (SF-268 CNS) of 36.8 µM. It also gave a GI50 (BT-549 breast) of 202 nM, a TGI (BT-549 breast) of 6.56 µM and a GI50 (MOLT-4 leukemia) of 195 nM. The TGI (MOLT-4 leukemia) was > 51.3 µM, the GI50 (MDA-MB-435) was 24.2 nM and the TGI (MDA-MB-435) was 72.8 nM. It also gave a GI50 (SK-OV-3 ovarian) of 236 nM, a TGI (SK-OV-3 ovarian) of 31.1 µM and a GI50 (A498 renal) of 17.2 µM. For the same compound, the TGI (A498 renal) was 32.8 µM, the GI50 (HL-60(TB) leukemia) was 34.1 nM and the TGI (HL-60(TB) leukemia) was > 100 µM. It also gave a GI50 (SK-MEL-5 melanoma) of 52.7 nM, a TGI (SK-MEL-5 melanoma) of 1590 nM and a GI50 (SW-620 colon) of 52.9 nM. It also gave a TGI (SW-620 colon) of 19.5 µM, a GI50 (HCC-2998 colon) of 203 nM and a TGI (HCC-2998 colon) of 6.1 µM.
